Reference: patent US9624229B2, “Pyrimidine-2-amine compounds and their use as inhibitors of JAK kinases” (Rigel Pharmaceuticals, Inc., priority 2008, dated 2017)

What follows are compounds tested against Ba/F3 V617F cells (Homo sapiens, UniProt O60674, V617F, cells depend on it) (assay: Proliferation assay (Cell Titer-Glo, 72 h) utilizing Ba/F3 V617F cells). Conditions: Ba/F3 V617F cells, proliferation, level of activity given as class symbol, read-out: IC50 (the source's name).
Chain of Ba/F3 V617F cells (O60674 whole entry V617F): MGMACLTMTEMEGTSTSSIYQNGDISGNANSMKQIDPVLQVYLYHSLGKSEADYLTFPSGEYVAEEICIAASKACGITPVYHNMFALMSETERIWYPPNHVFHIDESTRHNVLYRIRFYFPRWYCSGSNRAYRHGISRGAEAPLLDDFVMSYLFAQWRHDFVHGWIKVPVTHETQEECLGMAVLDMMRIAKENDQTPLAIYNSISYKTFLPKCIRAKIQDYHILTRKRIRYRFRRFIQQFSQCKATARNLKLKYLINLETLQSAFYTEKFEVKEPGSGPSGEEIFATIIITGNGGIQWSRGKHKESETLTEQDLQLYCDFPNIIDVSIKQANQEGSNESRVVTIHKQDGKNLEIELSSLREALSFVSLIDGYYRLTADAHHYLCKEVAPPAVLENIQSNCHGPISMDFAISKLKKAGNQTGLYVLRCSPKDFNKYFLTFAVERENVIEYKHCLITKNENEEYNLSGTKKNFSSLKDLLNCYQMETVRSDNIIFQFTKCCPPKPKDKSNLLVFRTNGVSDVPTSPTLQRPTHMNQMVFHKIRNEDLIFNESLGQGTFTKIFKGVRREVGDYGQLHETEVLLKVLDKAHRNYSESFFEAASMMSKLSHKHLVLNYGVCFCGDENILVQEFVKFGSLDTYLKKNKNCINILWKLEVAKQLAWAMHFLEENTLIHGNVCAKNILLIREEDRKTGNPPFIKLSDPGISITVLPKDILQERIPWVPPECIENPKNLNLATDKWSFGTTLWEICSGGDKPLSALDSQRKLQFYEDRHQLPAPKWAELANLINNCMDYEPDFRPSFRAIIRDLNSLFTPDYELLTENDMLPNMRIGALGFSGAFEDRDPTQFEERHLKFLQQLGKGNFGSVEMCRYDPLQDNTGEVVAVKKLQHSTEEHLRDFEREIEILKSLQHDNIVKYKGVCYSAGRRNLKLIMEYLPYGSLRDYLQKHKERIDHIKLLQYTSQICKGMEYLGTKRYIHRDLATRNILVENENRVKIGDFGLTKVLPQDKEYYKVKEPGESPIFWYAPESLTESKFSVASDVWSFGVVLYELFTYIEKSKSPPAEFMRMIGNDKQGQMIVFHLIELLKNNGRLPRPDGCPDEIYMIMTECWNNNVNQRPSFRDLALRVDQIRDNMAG
Type: cell-based, mouse
In short: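 Ba/F3 V617F cells in RPMI/10% FBS, 1×10^5 cells/mL, exposed in duplicate to 3-fold serial compound dilutions (top 5 mM DMSO stock, diluted 1:250, added as 2× solution in 5% FBS medium) for 72 h at 37 °C. Viability by Cell Titer-Glo luminescence; IC50 reported.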
Compound `Cc1cc(Nc2nccc(-c3cnc4c(c3)OCC(=O)N4)n2)ccc1N1C[C@@H]2C[C@H]1CO2` [compound 210, 4-(3-oxo-3,4-dihydro-2H-pyrido[3,2-b][1,4]oxazin-7-yl)-N-(3-methyl-4-((1S,4S)-5-oxa-2-azabicyclo[2.2.1]heptan-2-yl)phenyl)pyrimidin-2-amine] has a GI50 of less than 1000 nM. `CCOCCCNc1ccc(-c2ccnc(Nc3ccc(N4CC5(C)CN(C)CC(C)(C4)C5)c(C)c3)n2)cn1` [compound 211, 4-(6-(3-ethoxypropyl)aminopyridin-3-yl)-N-(3-methyl-4-(1,5,7-trimethyl-3,7-diazabicyclo[3.3.1]nonan-3-yl)phenyl)pyrimidin-2-amine] showed a GI50 of less than 1000 nM. `Cc1cc(Nc2nccc(-c3ccc(N4C[C@@H](C)O[C@@H](C)C4)nc3)n2)ccc1N1CC2(C)CN(C)CC(C)(C1)C2` [compound 212, 4-(6-((2S,6R)-2,6-dimethylmorpholin-4-yl)pyridin-3-yl)-N-(3-methyl-4-(1,5,7-trimethyl-3,7-diazabicyclo[3.3.1]nonan-3-yl)phenyl)pyrimidin-2-amine] showed a GI50 of less than 1000 nM. In the case of `CCCNc1ccc(-c2ccnc(Nc3ccc(N4CC5(C)CN(C)CC(C)(C4)C5)c(C)c3)n2)cn1` [compound 213, 4-(6-(propylamino)pyridin-3-yl)-N-(3-methyl-4-(1,5,7-trimethyl-3,7-diazabicyclo[3.3.1]nonan-3-yl)phenyl)pyrimidin-2-amine], the GI50 is reported as less than 1000 nM. With `Cc1cc(Nc2nccc(-c3ccc(NCCCN(C)C)nc3)n2)ccc1N1CC2(C)CN(C)CC(C)(C1)C2` [compound 214, 4-(6-(3-dimethylamino)propylaminopyridin-3-yl)-N-(3-methyl-4-(1,5,7-trimethyl-3,7-diazabicyclo[3.3.1]nonan-3-yl)phenyl)pyrimidin-2-amine] the GI50 was 1000 to 10000 nM. Work on `Cc1cc(Nc2nccc(-c3ccc(N4C[C@@H]5C[C@H]4CO5)nc3)n2)ccc1N1C[C@@H]2C[C@H]1CN2C` [compound 215, 4-(6-((1S,4S)-2-oxa-5-azabicyclo[2.2.1]heptan-5-yl)pyridin-3-yl)-N-(3-methyl-4-((1S,4S)-5-methyl-2,5-diazabicyclo[2.2.1]heptan-2-yl)phenyl)pyrimidin-2-amine] yielded a GI50 of less than 1000 nM. Compound `Cc1cc(Nc2nccc(-c3ccc(N4C[C@@H]5C[C@H]4CO5)nc3)n2)ccc1N1C[C@@H]2C[C@H]1CO2` [compound 216, 4-(6-((1S,4S)-5-oxa-2-azabicyclo[2.2.1]heptan-2-yl)pyridin-3-yl)-N-(3-methyl-4-((1S,4S)-5-oxa-2-azabicyclo[2.2.1]heptan-2-yl)phenyl)pyrimidin-2-amine] has a GI50 of less than 1000 nM. `Cc1cc(Nc2nccc(-c3ccc(NCCC(C)C)nc3)n2)ccc1N1C[C@@H]2C[C@H]1CN2C` [compound 217, 4-(6-(3-methylbutyl)aminopyridin-3-yl)-N-(3-methyl-4-((1S,4S)-5-methyl-2,5-diazabicyclo[2.2.1]heptan-2-yl)phenyl)pyrimidin-2-amine] was tested, and the GI50 was less than 1000 nM. Compound `Cc1cc(Nc2nccc(-c3ccc(NCCC(C)(C)C)nc3)n2)ccc1N1C[C@@H]2C[C@H]1CN2C` [compound 218, 4-(6-(3,3-dimethylbutyl)aminopyridin-3-yl)-N-(3-methyl-4-((1S,4S)-5-methyl-2,5-diazabicyclo[2.2.1]heptan-2-yl)phenyl)pyrimidin-2-amine] has a GI50 of less than 1000 nM. Work on `COCCN(C)c1ccc(-c2ccnc(Nc3ccc(N4C[C@@H]5C[C@H]4CN5C)c(C)c3)n2)cn1` [compound 219, 4-(6-(2-methoxyethyl)(methyl)aminopyridin-3-yl)-N-(3-methyl-4-((1S,4S)-5-methyl-2,5-diazabicyclo[2.2.1]heptan-2-yl)phenyl)pyrimidin-2-amine] yielded a GI50 of less than 1000 nM. Work on `COCCN(C)c1ccc(-c2ccnc(Nc3ccc(N4C[C@@H]5C[C@H]4CO5)c(C)c3)n2)cn1` [compound 220, 4-(6-(2-methoxyethyl)(methyl)aminopyridin-3-yl)-N-(3-methyl-4-((1S,4S)-5-oxa-2-azabicyclo[2.2.1]heptan-2-yl)phenyl)pyrimidin-2-amine] yielded a GI50 of less than 1000 nM. Compound `COCCN(C)c1ccc(-c2ccnc(Nc3ccc(N4CC5(C)CN(C)CC(C)(C4)C5)c(C)c3)n2)cn1` [compound 221, 4-(6-(2-methoxyethyl)(methyl)aminopyridin-3-yl)-N-(3-methyl-4-(1,5,7-trimethyl-3,7-diazabicyclo[3.3.1]nonan-3-yl)phenyl)pyrimidin-2-amine] has a GI50 of less than 1000 nM. In the case of `Cc1cc(Nc2nccc(-c3ccc(N4CCOCC4)nc3)n2)ccc1N1C[C@@H]2CC[C@H]1C2` [compound 222, 4-(6-(morpholin-4-yl)pyridin-3-yl)-N-(3-methyl-4-((1S,4R)-2-azabicyclo[2.2.1]heptan-2-yl)phenyl)pyrimidin-2-amine], the GI50 is reported as less than 1000 nM. `Cc1cc(Nc2nccc(-c3cnc4c(c3)OC(C)(C)C(=O)N4)n2)ccc1N1C[C@@H]2CC[C@H]1C2` [compound 223, 4-(2,2-dimethyl-3-oxo-3,4-dihydro-2H-pyrido[3,2-b][1,4]oxazin-7-yl)-N-(3-methyl-4-((1S,4R)-2-azabicyclo[2.2.1]heptan-2-yl)phenyl)pyrimidin-2-amine] gave a GI50 of less than 1000 nM. `CC1(C)Oc2cc(-c3ccnc(Nc4ccc(C5CC6CC5CN6S(C)(=O)=O)cc4)n3)cnc2NC1=O` (stereo not shown) [compound 226, 4-(2,2-dimethyl-3-oxo-3,4-dihydro-2H-pyrido[3,2-b][1,4]oxazin-7-yl)-N-(4-(2-methylsulfonyl-2-azabicyclo[2.2.1]heptan-5-yl)phenyl)pyrimidin-2-amine] was tested, and the GI50 was 1000 to 10000 nM. Compound `CS(=O)(=O)N1CC2CC1CC2c1ccc(Nc2nccc(-c3ccc(N4CCOCC4)nc3)n2)cc1` (stereo not shown) [compound 227, 4-(6-(morpholin-4-yl)pyridin-3-yl)-N-(4-(2-methylsulfonyl-2-azabicyclo[2.2.1]heptan-5-yl)phenyl)pyrimidin-2-amine] has a GI50 of less than 1000 nM. In the case of `CC1(C)Oc2cc(-c3ccnc(Nc4ccc(C5CC6CC5N(S(C)(=O)=O)C6)cc4)n3)cnc2NC1=O` (stereo not shown) [compound 228, 4-(2,2-dimethyl-3-oxo-3,4-dihydro-2H-pyrido[3,2-b][1,4]oxazin-7-yl)-N-(4-(2-methylsulfonyl-2-azabicyclo[2.2.1]heptan-6-yl)phenyl)pyrimidin-2-amine], the GI50 is reported as less than 1000 nM. Work on `CS(=O)(=O)N1CC2CC(c3ccc(Nc4nccc(-c5ccc(N6CCOCC6)nc5)n4)cc3)C1C2` (stereo not shown) [compound 229, 4-(6-(morpholin-4-yl)pyridin-3-yl)-N-(4-(2-methylsulfonyl-2-azabicyclo[2.2.1]heptan-6-yl)phenyl)pyrimidin-2-amine] yielded a GI50 of 1000 to 10000 nM. With `Cc1cc(Nc2nccc(-c3ccc(N4CCSCC4)nc3)n2)ccc1N1C[C@@H]2C[C@H]1CN2C` [compound 230, 4-(6-(thiamorpholin-4-yl)pyridin-3-yl)-N-(3-methyl-4-((1S,4S)-5-methyl-2,5-diazabicyclo[2.2.1]heptan-2-yl)phenyl)pyrimidin-2-amine] the GI50 was less than 1000 nM. `Cc1cc(Nc2nccc(-c3ccc(N4CCOCC4)nc3)n2)ccc1N1C[C@@H]2C[C@H]1CN2C` [compound 231, 4-(6-(morpholin-4-yl)pyridin-3-yl)-N-(3-methyl-4-((1S,4S)-5-methyl-2,5-diazabicyclo[2.2.1]heptan-2-yl)phenyl)pyrimidin-2-amine] gave a GI50 of less than 1000 nM. With `Cc1cc(Nc2nccc(-c3ccc4c(ccn4-c4ccncc4)c3)n2)ccc1N1C[C@@H]2C[C@H]1CN2C` [compound 232, 4-(1-(pyridin-4-yl)-1H-indol-5-yl)-N-(3-methyl-4-((1S,4S)-5-methyl-2,5-diazabicyclo[2.2.1]heptan-2-yl)phenyl)pyrimidin-2-amine] the GI50 was less than 1000 nM. `CN1C[C@@H]2C[C@H]1CN2c1ccc(Nc2nccc(-c3ccc4c(ccn4-c4ccncc4)c3)n2)cc1F` [compound 233, 4-(1-(pyridin-4-yl)-1H-indol-5-yl)-N-(3-fluoro-4-((1S,4S)-5-methyl-2,5-diazabicyclo[2.2.1]heptan-2-yl)phenyl)pyrimidin-2-amine] was tested, and the GI50 was less than 1000 nM. `CCN1C[C@@H]2C[C@H]1CN2c1ccc(Nc2nccc(-c3ccc4c(ccn4-c4ccncc4)c3)n2)cc1C` [compound 234, 4-(1-(pyridin-4-yl)-1H-indol-5-yl)-N-(3-methyl-4-((1S,4S)-5-ethyl-2,5-diazabicyclo[2.2.1]heptan-2-yl)phenyl)pyrimidin-2-amine] showed a GI50 of less than 1000 nM. `Cc1cc(Nc2nccc(-c3ccc4c(ccn4-c4ccncc4)c3)n2)ccc1N1C[C@@H]2C[C@H]1CN2CC(C)C` [compound 235, 4-(1-(pyridin-4-yl)-1H-indol-5-yl)-N-(3-methyl-4-((1S,4S)-5-isobutyl-2,5-diazabicyclo[2.2.1]heptan-2-yl)phenyl)pyrimidin-2-amine] was tested, and the GI50 was less than 1000 nM. Compound `Cc1cc(Nc2nccc(-c3cnc4c(c3)CCC(=O)N4)n2)ccc1N1C[C@@H]2C[C@H]1CN2S(C)(=O)=O` [compound 237, 4-(7-oxo-5,6,7,8-tetrahydro-1,8-naphthyridin-3-yl)-N-(3-methyl-4-((1S,4S)-5-methylsulfonyl-2,5-diazabicyclo[2.2.1]heptan-2-yl)phenyl)pyrimidin-2-amine] has a GI50 of less than 1000 nM. Compound `CCCNc1ccc(-c2ccnc(Nc3ccc(N4C[C@@H]5C[C@H]4CN5S(C)(=O)=O)c(C)c3)n2)cn1` [compound 238, 4-(6-(propylamino)pyridin-3-yl)-N-(3-methyl-4-((1S,4S)-5-methylsulfonyl-2,5-diazabicyclo[2.2.1]heptan-2-yl)phenyl)pyrimidin-2-amine] has a GI50 of less than 1000 nM. For `CN1C[C@@H]2C[C@H]1CN2c1ccc(Nc2nccc(-c3ccc4c(c3)SCC(=O)N4)n2)cc1` [compound 239, 4-(3-oxo-3,4-dihydro-2H-benzo[b][1,4]thiazin-7-yl)-N-(4-((1S,4S)-5-methyl-2,5-diazabicyclo[2.2.1]heptan-2-yl)phenyl)pyrimidin-2-amine], the GI50 was less than 1000 nM.

Same assay, conditions: inhibition of JAK2 activity, proliferation of Ba/F3 V617F cells, read-out: IC50 (the source's name)
With `Cc1cc(Nc2nccc(-c3ccc4c(ccn4-c4ccncc4)c3)n2)cnc1N1C[C@@H]2C[C@H]1CN2C` [compound 236, 4-(1-(pyridin-4-yl)-1H-indol-5-yl)-N-(5-methyl-6-((1S,4S)-5-methyl-2,5-diazabicyclo[2.2.1]heptan-2-yl)pyridin-3-yl)pyrimidin-2-amine] the GI50 was less than 1000 nM.
